# According to PubChem BioAssay (NCI):
# Where “and” joins values, the source holds several entries; their conditions need not be identical. Equal entries are not always repeated.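 Values below derive from 48-hour exposures of cells grown in 96-well plates, with endpoints linearly interpolated between the two concentrations bracketing the appropriate inhibition level. The concentration for 50% growth inhibition is given as GI50. Definition used: TGI = concentration required for complete inhibition of growth.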
# Legend:
# Test in all cases: inhibition of tumour cell growth, NCI panel, 48 h
# SR leukemia = tested on: SR leukemia
# OVCAR-3 ovarian = tested on: OVCAR-3 ovarian
# TK-10 renal = tested on: TK-10 renal
# SN12C renal = tested on: SN12C renal
# DU-145 prostate = tested on: DU-145 prostate
# MCF7 breast = tested on: MCF7 breast
# SK-OV-3 ovarian = tested on: SK-OV-3 ovarian
# CAKI-1 renal = tested on: CAKI-1 renal
# SK-MEL-28 melanoma = tested on: SK-MEL-28 melanoma
# MOLT-4 leukemia = tested on: MOLT-4 leukemia
SMILES,GI50 (SR leukemia) [µM],TGI (SR leukemia),GI50 (OVCAR-3 ovarian) [µM],TGI (OVCAR-3 ovarian) [µM],GI50 (TK-10 renal) [µM],TGI (TK-10 renal),GI50 (SN12C renal) [µM],TGI (SN12C renal),GI50 (DU-145 prostate) [µM],TGI (DU-145 prostate) [µM],GI50 (MCF7 breast) [µM],TGI (MCF7 breast) [µM],GI50 (SK-OV-3 ovarian) [µM],TGI (SK-OV-3 ovarian),GI50 (CAKI-1 renal) [µM],TGI (CAKI-1 renal) [µM],GI50 (SK-MEL-28 melanoma) [µM],TGI (SK-MEL-28 melanoma),GI50 (MOLT-4 leukemia) [µM],TGI (MOLT-4 leukemia)
COc1cc(/C=C2\C(=O)Nc3ccc(Br)cc32)cc(OC)c1OC,0.304,3.08 µM,5.59,> 56.9,4.65,30.1 µM,> 93.8,> 100 µM,18.7,> 100,2.64,> 100,24,> 56.1 µM,1.85,> 44.1,58.9,> 100 µM,8.51,> 100 µM
COc1cc(/C=C2/C(=O)N(C(=O)c3ccccc3O)N=C2C)ccc1O,–,> 100 µM,–,0.989,–,> 100 µM,–,> 39.1 µM,–,> 100,–,> 100,–,> 86.5 µM,–,> 25.5,–,> 100 µM,–,> 100 µM
CC(C)c1ccc2c(c1)c(SC(C)(C)C)c(CC(C)(C)C(=O)O)n2Cc1ccc(Cl)cc1,10.6,36.7 µM,6.36,19.8,15.2,30.6 µM,12.2,25.3 µM,6.76,19,5.14,19.4,14.1,29.8 µM,10.8,25.8,11.3,25.1 µM,1.64,26.3 µM
CCCCCCCCCCCCNC(=O)[C@H]1CSC(c2ccsc2)N1 (stereo partly specified),0.882,2.07 µM,0.995,1.81,0.897,1.63 µM,0.911,1.64 µM,0.979,1.82,0.879,1.71,0.955,1.66 µM,0.898,1.6,0.814,1.54 µM,0.895,1.84 µM
CCn1c(-c2nonc2N)nc2c(C#CC(C)(C)O)ncc(OC[C@@H]3CCCN3)c21,8.19,> 20.2 µM,2.86,9.22,1.83,> 21.8 µM,5.26,> 25 µM,4.76,> 22.9,1.71,9.73,0.968,> 19 µM,> 25,> 25,12.1,> 25 µM,3.01,> 25 µM
C=C1C(=O)C23CC1CCC2C12CO[C@@]3(O)[C@@H](O)C1C(C)(C)C=CC2=O (stereo partly specified),0.721,43.6 µM and 16.1 µM,–,2.75,4.51,1.55 µM and 11.2 µM,2.03,3.87 µM and 4.05 µM,–,41.3,–,11.6,26.1,13.7 µM and 54.5 µM,–,4.13,1.58,1.48 µM and 3.35 µM,2.6,2.15 µM and 9.87 µM
Cc1cc(C)c2nccc(NCCCN(C)C)c2c1[N+](=O)[O-],–,> 100 µM,–,> 100,–,> 100 µM,–,> 100 µM,–,> 100,–,> 100,–,> 100 µM,–,> 100,–,37 µM,–,> 100 µM
O=C(O)C(O)c1ccc(F)cc1 (stereo unspecified),–,> 100 µM,–,> 100,–,> 100 µM,–,> 100 µM,–,> 100,–,> 100,–,> 100 µM,–,> 100,–,> 100 µM,–,> 100 µM
CCOC(=O)C(=Cc1c(-c2ccccc2)[nH]c2ccccc12)C(=O)OCC,2.09,9.43 µM,4.21,22.6,13.5,56.9 µM,5.04,55 µM,9.69,28.4,4.49,18,13.6,49.2 µM,8.26,> 49.8,7.4,21.6 µM,3.81,18.8 µM
COc1ccc(-c2nn3ncccc3c2-c2ccnc(Nc3cccc(C(F)(F)F)c3)n2)cc1,13.5,> 25 µM,8.36,> 25,8.49,> 22.5 µM,8.03,> 25 µM,12.1,> 25,7.42,> 25,7.76,> 25 µM,7,> 25,16.7,> 25 µM,8.8,> 25 µM
COc1ccc2nc3cc(Cl)ccc3c(Nc3ccc(O)c(CN4CCCC4)c3)c2c1,0.534,3.3 µM,3.54,15,2.29,4.75 µM,1.84,4.56 µM,2.16,4.77,1.32,2.87,6.21,19 µM,2.09,4.88,1.98,3.46 µM,2.43,11.4 µM
N#Cc1c(-c2ccc(Cl)cc2)csc1NC(=O)Nc1cccc(C(F)(F)F)c1,2.41,8.41 µM,2.73,11.2,2.23,8.95 µM,2.93,10.7 µM,3.21,13.9,3.04,9.97,2.54,6.89 µM,2.7,10.5,2.65,8.97 µM,1.91,7.77 µM
COC(=O)C1=C(C(=O)OC)C(C(=O)OC)C(C(=O)OC)C(C(=O)OC)(C(=O)OC)C(C(=O)OC)=C1C(=O)OC (stereo unspecified),–,3.34 µM,–,28.9,–,29 µM,–,27.5 µM,–,32.1,–,33.6,–,55.6 µM,–,36.7,–,29.3 µM,–,6.71 µM
N#CC1=C(N)Oc2c(sc3c(Br)cccc23)C1c1ccc(F)cc1 (stereo unspecified),0.241,11.9 µM,0.265,0.917,0.436,15.8 µM,1.22,18.7 µM,0.333,10.6,0.273,14.3,0.471,18.6 µM,0.437,31.9,1.61,28.2 µM,0.473,14.2 µM
